Laboratory results reported in US5026848A, “Novel generation of heteroaryloxyalkyl heterocycles with antipicornaviruses activities” (Synphar Laboratories Incorporated, priority 1988, dated 1991).
Values after ≈ are worked out from the molar mass of the structure shown. Read-outs that look alike come from different tables or passages of the source.

Columns and labels:
[1] = tested on: Rhinovirus 30; experiment: Anti-rhinovirus activity, cytopathic effect inhibition / neutral red dye uptake, type 30; assay type: cell-based; conditions: Enterovirus, WI-38; Table II; read-out: MIC 50 Rhinovirus Type 30
[2] = tested on: Rhinovirus 23; experiment: Anti-rhinovirus activity, cytopathic effect inhibition / neutral red dye uptake, type 23; assay type: cell-based; conditions: Enterovirus, WI-38; Table II; read-out: MIC 50 Rhinovirus Type 23
[3] = tested on: Rhinovirus 1B; experiment: Anti-rhinovirus activity, cytopathic effect inhibition / neutral red dye uptake, type 1B; assay type: cell-based; conditions: Enterovirus, WI-38; Table II; one of seven commonest serotypes; read-out: MIC 50 Rhinovirus Type 1B
[4] = tested on: Rhinovirus 15; experiment: Anti-rhinovirus activity, cytopathic effect inhibition / neutral red dye uptake, type 15; assay type: cell-based; conditions: Enterovirus, WI-38; Table II; one of seven commonest serotypes; read-out: MIC 50 Rhinovirus Type 15
[5] = tested on: 20 serotypes of rhinovirus; experiment: Anti-rhinovirus activity against a panel of 20 serotypes; conditions: Table II; numerator; denominator 20, but 10 for compound 8 and 6 for compound 30
[6] = tested on: Rhinovirus 31; experiment: Anti-rhinovirus activity, cytopathic effect inhibition / neutral red dye uptake, type 31; assay type: cell-based; conditions: Enterovirus, WI-38; Table II; one of seven commonest serotypes; read-out: MIC 50 Rhinovirus Type 31
[7] = tested on: Rhinovirus 2; experiment: Anti-rhinovirus activity, cytopathic effect inhibition / neutral red dye uptake, type 2; assay type: cell-based; conditions: Enterovirus, WI-38; Table II; one of seven commonest serotypes; read-out: MIC 50 Rhinovirus Type 2
[8] = tested on: Rhinovirus 63; experiment: Anti-rhinovirus activity, cytopathic effect inhibition / neutral red dye uptake, type 63; assay type: cell-based; conditions: Enterovirus, WI-38; Table II; read-out: MIC 50 Rhinovirus Type 63
[9] = tested on: Enterovirus serotypes; assay type: cell-based; conditions: for All Enterovirus Serotypes (number of serotypes active / tested): Table III, numerator, denominator 7, but 5 for compound 8
[10] = tested on: Rhinovirus 4; experiment: Anti-rhinovirus activity, cytopathic effect inhibition / neutral red dye uptake, type 4; assay type: cell-based; conditions: Enterovirus, WI-38; Table II; one of seven commonest serotypes; read-out: MIC 50 Rhinovirus Type 4
[11] = tested on: Rhinovirus 49; experiment: Anti-rhinovirus activity, cytopathic effect inhibition / neutral red dye uptake, type 49; assay type: cell-based; conditions: Enterovirus, WI-38; Table II; read-out: MIC 50 Rhinovirus Type 49
[12] = tested on: Rhinovirus 56; experiment: Anti-rhinovirus activity, cytopathic effect inhibition / neutral red dye uptake, type 56; assay type: cell-based; conditions: Enterovirus, WI-38; Table II; read-out: MIC 50 Rhinovirus Type 56
[13] = tested on: Polio 1; experiment: microbe, parasite or virus in culture; assay type: cell-based; conditions: Enterovirus, read-out: MIC 50 Polio 1
[14] = tested on: WI38 cells; experiment: Toxicity to WI38 cells (change in morphology in / growth inhibition of 25% of the cells); assay type: cell-based
[15] = tested on: Coxsacki-B1; experiment: Activity against other picornaviruses, Coxsacki-B1; assay type: cell-based; conditions: Enterovirus, read-out: MIC 50 Cox. B1
[16] = tested on: Rhinovirus 88; experiment: Anti-rhinovirus activity, cytopathic effect inhibition / neutral red dye uptake, type 88; assay type: cell-based; conditions: Enterovirus, WI-38; Table II; read-out: MIC 50 Rhinovirus Type 88
[17] = tested on: Coxsacki-A21; experiment: Activity against other picornaviruses, Coxsacki-A21; assay type: cell-based; conditions: Enterovirus, read-out: MIC 50 Cox. A21
[18] = tested on: Rhinovirus 86; experiment: Anti-rhinovirus activity, cytopathic effect inhibition / neutral red dye uptake, type 86; assay type: cell-based; conditions: Enterovirus, WI-38; Table II; read-out: MIC 50 Rhinovirus Type 86
[19] = tested on: Rhinovirus 1A; experiment: Anti-rhinovirus activity, cytopathic effect inhibition / neutral red dye uptake, type 1A; assay type: cell-based; conditions: Enterovirus, WI-38; Table I; WI38 cells, 33° C., 3-4 days; NA = Not active; read-out: MIC50 Rhinovirus 1A
[20] = tested on: Rhinovirus 36; experiment: Anti-rhinovirus activity, cytopathic effect inhibition / neutral red dye uptake, type 36; assay type: cell-based; conditions: Enterovirus, WI-38; Table II; read-out: MIC 50 Rhinovirus Type 36
[21] = tested on: Echo-11; experiment: Activity against other picornaviruses, Echo-11; assay type: cell-based; conditions: Enterovirus, read-out: MIC 50 Echo 11
[22] = tested on: Rhinovirus 29; experiment: Anti-rhinovirus activity, cytopathic effect inhibition / neutral red dye uptake, type 29; assay type: cell-based; conditions: Enterovirus, WI-38; Table II; one of seven commonest serotypes; read-out: MIC 50 Rhinovirus Type 29
[23] = tested on: Coxsacki-B4; experiment: Activity against other picornaviruses, Coxsacki-B4; assay type: cell-based; conditions: Enterovirus, read-out: MIC 50 Cox. B4
[24] = tested on: Rhinovirus 32; experiment: Anti-rhinovirus activity, cytopathic effect inhibition / neutral red dye uptake, type 32; assay type: cell-based; conditions: Enterovirus, WI-38; Table II; read-out: MIC 50 Rhinovirus Type 32
[25] = tested on: Rhinovirus 44; experiment: Anti-rhinovirus activity, cytopathic effect inhibition / neutral red dye uptake, type 44; assay type: cell-based; conditions: Enterovirus, WI-38; Table II; read-out: MIC 50 Rhinovirus Type 44
[26] = tested on: Echo-7; experiment: Activity against other picornaviruses, Echo-7; assay type: cell-based; conditions: Enterovirus, read-out: MIC 50 Echo 7
[27] = tested on: Rhinovirus 39; experiment: Anti-rhinovirus activity, cytopathic effect inhibition / neutral red dye uptake, type 39; assay type: cell-based; conditions: Enterovirus, WI-38
[28] = tested on: Rhinovirus 53; experiment: Anti-rhinovirus activity, cytopathic effect inhibition / neutral red dye uptake, type 53; assay type: cell-based; conditions: Enterovirus, WI-38; Table II; read-out: MIC 50 Rhinovirus Type 53
[29] = tested on: HRV-1A and HRV-39; experiment: Anti-rhinovirus activity against HRV-1A and HRV-39; conditions: in words
[30] = tested on: Coxsacki-A9; experiment: Activity against other picornaviruses, Coxsacki-A9; assay type: cell-based; conditions: Enterovirus, read-out: MIC 50 Cox. A9
[31] = tested on: Rhinovirus 17; experiment: Anti-rhinovirus activity, cytopathic effect inhibition / neutral red dye uptake, type 17; assay type: cell-based; conditions: Enterovirus, WI-38; Table II; read-out: MIC 50 Rhinovirus Type 17
[32] = Table I, concentration with change in morphology in 25% of WI38 cells
[33] = Table I, WI38 cells, 33° C., 3-4 days, read-out: MIC50 Rhinovirus 39

Structure (SMILES)	IC50 [1] [µg/mL]	IC50 [2] [µg/mL]	IC50 [3] [µg/mL]	IC50 [4] [µg/mL]	All Rhinovirus Serotypes (number of serotypes active / tested) [5]	EC50 [6] [µg/mL]	IC50 [7] [µg/mL]	EC50 [8] [µg/mL]	inhibitory activity against the members of the Entero virus family [9]	All Enterovirus Serotypes (number of serotypes active / tested) [9]	IC50 [10] [µg/mL]	EC50 [11] [µg/mL]	EC50 [12] [µg/mL]	EC50 [13] [µg/mL]	Toxicity [14, 32] [µg/mL]	Toxicity ([14]; Table II) [µg/mL]	Toxicity ([14]; Table III) [µg/mL]	IC50 [15] [µg/mL]	EC50 [16] [µg/mL]	IC50 [17] [µg/mL]	other results
Cc1cc(CCCCCCCOc2ccc3oc4ccccc4c3c2)on1 [Compound 5]	0.5 (≈ 1.38 µM)	5 (≈ 13.8 µM)	5 (≈ 13.8 µM)	5 (≈ 13.8 µM)	17	10 (≈ 27.5 µM)	> 25	10 (≈ 27.5 µM)	remarkable inhibitory activity	5	< 0.5	> 25	5 (≈ 13.8 µM)	10 (≈ 27.5 µM)	100	100	100	10 (≈ 27.5 µM)	0.5 (≈ 1.38 µM)	5 (≈ 13.8 µM)	EC50 [18]: 0.5 µg/mL (≈ 1.38 µM); EC50 [19]: 5 µg/mL (≈ 13.8 µM); EC50 [20]: > 25 µg/mL; IC50 [21]: > 25 µg/mL; IC50 [22]: 5 µg/mL (≈ 13.8 µM); IC50 [23]: > 25 µg/mL; EC50 [24]: 25 µg/mL (≈ 68.8 µM); EC50 [25]: < 0.5 µg/mL; IC50 [26]: 25 µg/mL (≈ 68.8 µM); EC50 [27, 33]: 1 µg/mL (≈ 2.75 µM); EC50 [28]: 10 µg/mL (≈ 27.5 µM); inhibitory activity against HRV-1A and HRV-39 in vitro [29]: remarkably inhibitory activity; EC50 [30]: 5 µg/mL (≈ 13.8 µM); IC50 [31]: 10 µg/mL (≈ 27.5 µM)
Cc1cc(CCCCCCCOc2cc(C)nc3ccccc23)on1 [Compound 9, 5-[7-(2-methylquinolin-4-yl)oxyheptyl]-3-methisoxazole]	0.5 (≈ 1.48 µM)	5 (≈ 14.8 µM)	10 (≈ 29.5 µM)	5 (≈ 14.8 µM)	19	1 (≈ 2.95 µM)	1 (≈ 2.95 µM)	5 (≈ 14.8 µM)	remarkable inhibitory activity	2	10 (≈ 29.5 µM)	10 (≈ 29.5 µM)	5 (≈ 14.8 µM)	> 25	50	50	50	> 25	< 0.5	10 (≈ 29.5 µM)	EC50 [18]: 5 µg/mL (≈ 14.8 µM); EC50 [19]: 5 µg/mL (≈ 14.8 µM); EC50 [20]: 10 µg/mL (≈ 29.5 µM); IC50 [21]: > 25 µg/mL; IC50 [22]: 5 µg/mL (≈ 14.8 µM); IC50 [23]: 10 µg/mL (≈ 29.5 µM); EC50 [24]: 10 µg/mL (≈ 29.5 µM); EC50 [25]: 1 µg/mL (≈ 2.95 µM); IC50 [26]: > 25 µg/mL; EC50 [27, 33]: 1 µg/mL (≈ 2.95 µM); EC50 ([27]; Table II, read-out: MIC 50 Rhinovirus Type 39): 5 µg/mL (≈ 14.8 µM); EC50 [28]: 5 µg/mL (≈ 14.8 µM); inhibitory activity against HRV-1A and HRV-39 in vitro [29]: remarkably inhibitory activity; EC50 [30]: > 25 µg/mL; IC50 [31]: > 25 µg/mL
